Experimental data from patent US12012398B2, “Bicyclic compounds as androgen receptor modulators” (NIDO BIOSCIENCES, INC., priority 2021, dated 2024).
pIC50: −log10 of the molar value.

These compounds were tested on LNCaP cells expressing ARR2PB-FireflyLuc and CMV-RenillaLuc (assay: LNCaP ARR2PB-FireflyLuc reporter assay, antagonist mode). Conditions: +0.5 nM DHT, 48 h at 37° C., read-out: LNCap Antagonist Archive: IC50.
Format: cell-based
Description: LNCaP cells expressing ARR2PB-FireflyLuc and CMV-RenillaLuc were treated with indicated concentrations of test compounds, enzalutamide (negative control), or DHT (positive control)+/−0.5 nM DHT for 48 h at 37° C. Fluorescent signals were read with the ImageXpress Micro Confocal System. Remaining activity (antagonist mode) was calculated as % Remaining Activity=100×[(ReadSample−LCave)/(HCave−LCave)] where HC is cells treated with 0.5 nM DHT only and LC is cells treated with 10 uM enzalutamide+0.5 nM DHT. Activation (agonist mode) was calculated as % Activation=100×[(ReadSample−LCave)/(HCave−LCave)] where HO is cells treated with 1 uM DHT and LC is cells treated with DMSO. Dose response curves and IC50 values were calculated using non-linear regression analysis in XLfit.
The designation “A” indicates an IC50 value of >10 μM, “B” indicates an IC50 value between 1 μM and 10 μM; “C” indicates an IC50 value between 100 nM and 1 μM; and “D” indicates an IC50 value of less than 100 nM.
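Further: IC50 bins in nM.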

Row | SMILES | pIC50
1 | CN(C(=O)c1cc2ccnc(Cl)c2n1C)C12CC(F)(C1)C2 [Example 128, 7-chloro-N-{3-fluorobicyclo[1.1.1]pentan-1-yl}-N,1-dimethylpyrrolo[2,3-c]pyridine-2-carboxamide] | 6.00 to 7.00

Same assay, conditions: Homo sapiens, LNCaP, 48 h, +0.5 nM DHT, 48 h at 37° C., read-out: LNCap Antagonist Archive: IC50

Row | SMILES | pIC50
2 | CN(C(=O)c1cc2ccnc(Cl)c2[nH]1)C12CC(F)(C1)C2 [Example 98, 7-chloro-N-[3-fluorobicyclo[1.1.1]pentan-1-yl]-N-methyl-1H-pyrrolo[2,3-c]pyridine-2-carboxamide] | 6.00 to 7.00
3 | O=C(NC12CC(F)(C1)C2)c1cc2ccnc(Cl)c2[nH]1 [Example 99, 7-chloro-N-[3-fluorobicyclo[1.1.1]pentan-1-yl]-1H-pyrrolo[2,3-c]pyridine-2-carboxamide] | 5.00 to 6.00
4 | O=C(NC1CC(F)(F)C1)c1cc2ccnc(Cl)c2[nH]1 [Example 100, 7-chloro-N-(3,3-difluorocyclobutyl)-1H-pyrrolo[2,3-c]pyridine-2-carboxamide] | 6.00 to 7.00
5 | CN(C(=O)c1cc2ccnc(Cl)c2[nH]1)C1CC(F)(F)C1 [Example 101, 7-chloro-N-(3,3-difluorocyclobutyl)-N-methyl-1H-pyrrolo[2,3-c]pyridine-2-carboxamide] | 5.00 to 6.00
6 | Cc1c(C(=O)NC23CC(C2)C3)[nH]c2c(Cl)cccc12 [Example 102, N-[bicyclo[1.1.1]pentan-1-yl]-7-chloro-3-methyl-1H-indole-2-carboxamide] | 6.00 to 7.00
7 | O=C(NC12CC(C1)C2)c1cc2ccncc2[nH]1 [Example 103, N-[bicyclo[1.1.1]pentan-1-yl]-1H-pyrrolo[2,3-c]pyridine-2-carboxamide] | < 5.00
8 | Cc1c(C(=O)N(C)C23CC(C2)C3)[nH]c2c(Cl)cccc12 [Example 104, N-[bicyclo[1.1.1]pentan-1-yl]-7-chloro-N,3-dimethyl-1H-indole-2-carboxamide] | < 5.00
9 | O=C(NC12CC(C1)C2)c1[nH]c2c(Cl)cccc2c1C1CC1 [Example 105, N-[bicyclo[1.1.1]pentan-1-yl]-7-chloro-3-cyclopropyl-1H-indole-2-carboxamide] | 5.00 to 6.00
10 | O=C(NC12CC(C1)C2)c1[nH]c2c(Cl)cccc2c1Cl [Example 106, N-[bicyclo[1.1.1]pentan-1-yl]-3,7-dichloro-1H-indole-2-carboxamide] | 5.00 to 6.00
11 | Cn1ccc(-c2c(C(=O)NC34CC(C3)C4)[nH]c3c(Cl)cccc23)n1 [Example 107, N-[bicyclo[1.1.1]pentan-1-yl]-7-chloro-3-(1-methylpyrazol-3-yl)-1H-indole-2-carboxamide] | < 5.00
12 | O=C(NC12CC(C1)C2)c1[nH]c2c(Cl)cccc2c1-c1ccccc1 [Example 108, N-[bicyclo[1.1.1]pentan-1-yl]-7-chloro-3-phenyl-1H-indole-2-carboxamide] | 5.00 to 6.00
13 | Cc1c(C(=O)NC23CC(F)(C2)C3)[nH]c2c(Cl)cccc12 [Example 109, 7-chloro-N-[3-fluorobicyclo[1.1.1]pentan-1-yl]-3-methyl-1H-indole-2-carboxamide] | 6.00 to 7.00
14 | Cn1c(C(=O)NC23CC(F)(C2)C3)cc2ccnc(Cl)c21 [Example 110, 7-chloro-N-[3-fluorobicyclo[1.1.1]pentan-1-yl]-1-methylpyrrolo[2,3-c]pyridine-2-carboxamide] | 6.00 to 7.00
15 | CCn1c(C(=O)NC23CC(F)(C2)C3)cc2ccnc(Cl)c21 [Example 111, 7-chloro-1-ethyl-N-[3-fluorobicyclo[1.1.1]pentan-1-yl]pyrrolo[2,3-c]pyridine-2-carboxamide] | > 7.00
16 | O=C(NC12CC(F)(C1)C2)c1cc2ccnc(Cl)c2n1CC1CC1 [Example 113, 7-chloro-1-(cyclopropylmethyl)-N-{3-fluorobicyclo[1.1.1]pentan-1-yl}pyrrolo[2,3-c]pyridine-2-carboxamide] | 6.00 to 7.00
17 | Cn1c(C(=O)NC23CC(F)(C2)C3)cc2cccc(Cl)c21 [Example 114, 7-chloro-N-{3-fluorobicyclo[1.1.1]pentan-1-yl}-1-methylindole-2-carboxamide] | > 7.00
18 | O=C(NC12CC(O)(C1)C2)c1cc2cccc(Cl)c2[nH]1 [Example 115, 7-chloro-N-[3-hydroxybicyclo[1.1.1]pentan-1-yl]-1H-indole-2-carboxamide] | < 5.00
19 | O=C(NC12CC(O)(C1)C2)c1cc2ccnc(Cl)c2[nH]1 [Example 116, 7-chloro-N-{3-hydroxybicyclo[1.1.1]pentan-1-yl}-1H-pyrrolo[2,3-c]pyridine-2-carboxamide] | < 5.00
20 | CCN(C(=O)c1cc2ccnc(Cl)c2[nH]1)C12CC(F)(C1)C2 [Example 117, 7-chloro-N-ethyl-N-{3-fluorobicyclo[1.1.1]pentan-1-yl}-1H-pyrrolo[2,3-c]pyridine-2-carboxamide] | 6.00 to 7.00
21 | COc1nccc2cc(C(=O)NC34CC(F)(C3)C4)n(C)c12 [Example 118, N-{3-fluorobicyclo[1.1.1]pentan-1-yl}-7-methoxy-1-methylpyrrolo[2,3-c]pyridine-2-carboxamide] | 5.00 to 6.00
22 | Cn1c(C(=O)NC23CC(F)(C2)C3)cc2ccnc(OC3CC3)c21 [Example 119, 7-cyclopropoxy-N-{3-fluorobicyclo[1.1.1]pentan-1-yl}-1-methylpyrrolo[2,3-c]pyridine-2-carboxamide] | < 5.00
23 | Cn1c(C(=O)NC23CC(F)(C2)C3)cc2ccnc(C3CC3)c21 [Example 120, 7-cyclopropyl-N-{3-fluorobicyclo[1.1.1]pentan-1-yl}-1-methylpyrrolo[2,3-c]pyridine-2-carboxamide] | 5.00 to 6.00
24 | O=C(NC12CC(F)(C1)C2)c1cc2ccnc(OC3CC3)c2[nH]1 [Example 122, 7-cyclopropoxy-N-{3-fluorobicyclo[1.1.1]pentan-1-yl}-1H-pyrrolo[2,3-c]pyridine-2-carboxamide] | < 5.00
25 | CNc1nccc2cc(C(=O)NC34CC(F)(C3)C4)n(C)c12 [Example 124, N-{3-fluorobicyclo[1.1.1]pentan-1-yl}-1-methyl-7-(methylamino)pyrrolo[2,3-c]pyridine-2-carboxamide] | < 5.00
26 | CN(C)c1nccc2cc(C(=O)NC34CC(F)(C3)C4)n(C)c12 [Example 125, 7-(dimethylamino)-N-{3-fluorobicyclo[1.1.1]pentan-1-yl}-1-methylpyrrolo[2,3-c]pyridine-2-carboxamide] | 5.00 to 6.00
27 | CN(C(=O)c1cc2ccnc(OC3CC3)c2[nH]1)C12CC(F)(C1)C2 [Example 126, 7-cyclopropoxy-N-{3-fluorobicyclo[1.1.1]pentan-1-yl}-N-methyl-1H-pyrrolo[2,3-c]pyridine-2-carboxamide] | < 5.00
28 | CN(C(=O)c1cc2ccnc(Cl)c2n1C)C12CC(F)(C1)C2 [Example 128, 7-chloro-N-{3-fluorobicyclo[1.1.1]pentan-1-yl}-N,1-dimethylpyrrolo[2,3-c]pyridine-2-carboxamide] | > 7.00
29 | Cc1c(C(=O)NC23CC(F)(C2)C3)n(C)c2c(Cl)nccc12 [Example 129, 7-chloro-N-{3-fluorobicyclo[1.1.1]pentan-1-yl}-1,3-dimethylpyrrolo[2,3-c]pyridine-2-carboxamide] | < 5.00
30 | Cc1nccc2cc(C(=O)NC34CC(F)(C3)C4)n(C)c12 [Example 130, N-{3-fluorobicyclo[1.1.1]pentan-1-yl}-1,7-dimethylpyrrolo[2,3-c]pyridine-2-carboxamide] | 5.00 to 6.00
31 | Cn1c(C(=O)NC23CC(F)(C2)C3)cc2ccnc(C#N)c21 [Example 131, 7-cyano-N-{3-fluorobicyclo[1.1.1]pentan-1-yl}-1-methylpyrrolo[2,3-c]pyridine-2-carboxamide] | 6.00 to 7.00
